The subject of assay [1] is A10 cells. Put plainly: Frequency of endoapoptotic bodies after incubation with cytochalasin B. Particulars: 48 h, 2 μg/ml in culture medium. It is filed as cell-based, Rat.
Assay [2] relates to A10 cells. Particulars: hydrogen peroxide-induced apoptotic cells.
Experimental: Electron microscopy: For studying endoapoptosis in transformed foci, NIH3T3 cells were grown on Thermanox plastic coverslips and the cells were processed as monolayer by fixation with 2% glutaraldehyde in 0.1 M cacodylate buffer, pH 7.3, overnight at 5° C., and post-fixed with 1% osmium tetroxide acid. Cells were in block stained overnight in 0.5% aqueous uranyl acetate, dehydrated in acetone and embedded in Epon resin. Thin sections were cut, stained with uranyl acetate and lead citrate and viewed in a Philips 300 electron microscope. In some cases the monolayer of cells were scraped with rubber policeman after fixation and pelleted and processed for sectioning as above.
For assay [3], the system named is A10 cells. How it is done: A10 cells were stained with acridine orange at different times after exposure to hydrogen peroxide (0.2 mM) and at least 500 cells were scored at each time interval to obtain the above graph. Lines 1-4 represent the frequency of apoptotic nuclei having characteristic fluorescence patterns.
Acridine orange and DAPI staining: Cells grown on glass coverslips were stained for 3-4 minutes in 100 μg/ml acridine orange (Sigma Chemicals Ltd) dissolved in HBSS; coverslips were rinsed briefly in HBSS and mounted in HBSS [19]. Cells were examined immediately in a Zeiss Axioskop fluorescence microscope equipped with filter #9 and epi-illumination. Double stranded DNA fluoresces green while single-stranded RNA and DNA fluoresce red after staining with acridine orange. In most of the experiments, endoapoptosis was scored by the presence of the endoapoptotic nuclei (mini cells) in very early (bright green fluorescence), mid phase (red fluorescence), late phase (no specific fluorescence) or the presence of a ‘ghost’ with no nuclear matrix, with or without fragmentation of the mini cells.

Where [4] appears, read: 0.02 mM hydrogen peroxide, acridine orange.

The structures appear in SMILES notation.

Regarding `C=C1[C@@H](C)[C@H]2[C@H](Cc3ccccc3)NC(=O)[C@]23OC(=O)/C=C/[C@H](O)CCC[C@@H](C)C/C=C/[C@H]3[C@@H]1O` [cytochalasin B], the “effect on frequency of endoapoptotic bodies” value in the assay with A10 cells [1] is listed as “did not reduce the frequency of endoapoptotic bodies”.
Consider `OO` [hydrogen peroxide], for which the “nuclear changes in transmission electron microscopy” value with A10 cells [2] is “typical apoptotic changes in the nucleus such as chromatin marginization and condensation”. In the assay with A10 cells [3] (0.02 mM hydrogen peroxide in the culture medium, followed over 24 hours), the “induction of classic apoptosis” value is given as “classic apoptosis was induced”. Further, in the assay on A10 cells [3] (setting [4]), the “persistence of red nuclear fluorescence” value lay in the range of 3 to 6 h and the “time after apoptotic death until nuclei displayed red fluorescence” value lay within 2 to 3 h. Moreover, the “temporal changes in nuclear fluorescence pattern compared with 0.2 mM” value in the assay with A10 cells [3] (0.1 mM hydrogen peroxide, acridine orange) is on record as “induced similar changes with a 24 h delay”.

Source of the values: patent US20020015942A1, “Method for cancer screening” (priority 1996, published 2002).
